Columns and labels:
Format in all cases: functional
EKVX = test: Growth inhibition of human EKVX cells after 48 hrs by SRB protein assay; settings: for TGI: read-out: Log TGI (converted)
COLO 205 = test: Growth inhibition of human COLO205 cells after 48 hrs by SRB protein assay; settings: COLO 205, 48 h; for TGI: read-out: Log TGI (converted)
MDA-MB-435 = test: Growth inhibition of human MDA-MB-435 cells after 48 hrs by SRB protein assay; settings: MDA-MB-435, 48 h; for TGI: read-out: Log TGI (converted)
SNB-75 = test: Growth inhibition of human SNB75 cells after 48 hrs by SRB protein assay; settings: SNB-75, 48 h
SW-620 = test: Growth inhibition of human SW620 cells after 48 hrs by SRB protein assay; settings: SW-620, 48 h; for TGI: read-out: Log TGI (converted)
SK-OV-3 = test: Growth inhibition of human SK-OV-3 cells after 48 hrs by SRB protein assay; settings: SK-OV-3, 48 h; for TGI: read-out: Log TGI (converted)
TK-10 = test: Growth inhibition of human TK10 cells after 48 hrs by SRB protein assay; settings: TK-10, 48 h; for TGI: read-out: Log TGI (converted)
NCI-H23 = test: Growth inhibition of human NCI-H23 cells after 48 hrs by SRB protein assay; settings: NCI-H23, 48 h; for TGI: read-out: Log TGI (converted)
NCI-H460 = test: Growth inhibition of human NCI-H460 cells after 48 hrs by SRB protein assay; settings: NCI-H460, 48 h; for TGI: read-out: Log TGI (converted)
HOP-62 = test: Growth inhibition of human HOP62 cells after 48 hrs by SRB protein assay; settings: HOP-62, 48 h; for TGI: read-out: Log TGI (converted)
SK-MEL-28 = test: Growth inhibition of human SK-MEL-28 cells after 48 hrs by SRB protein assay; settings: SK-MEL-28, 48 h; for TGI: read-out: Log TGI (converted)
T47D = test: Growth inhibition of human T47D cells after 48 hrs by SRB protein assay; settings: for TGI: read-out: Log TGI (converted)
IGROV-1 = test: Growth inhibition of human IGROV1 cells after 48 hrs by SRB protein assay; settings: IGROV-1, 48 h; for TGI: read-out: Log TGI (converted)
SNB-19 = test: Growth inhibition of human SNB19 cells after 48 hrs by SRB protein assay; settings: SNB-19, 48 h; for TGI: read-out: Log TGI (converted)
CCRF-CEM = test: Growth inhibition of human CCRF-CEM cells after 48 hrs by SRB protein assay; settings: for TGI: read-out: Log TGI (converted)
NCI-H322M = test: Growth inhibition of human NCI-H322M cells after 48 hrs by SRB protein assay; settings: for TGI: read-out: Log TGI (converted)
A498 = test: Growth inhibition of human A498 cells after 48 hrs by SRB protein assay; settings: A498, 48 h; for TGI: read-out: Log TGI (converted)
HL-60 = test: Growth inhibition of human HL60 cells after 48 hrs by SRB protein assay; settings: HL-60, 48 h; for TGI: read-out: Log TGI (converted)
DU-145 = test: Growth inhibition of human DU145 cells after 48 hrs by SRB protein assay; settings: DU-145, 48 h; for TGI: read-out: Log TGI (converted)
SF-539 = test: Growth inhibition of human SF539 cells after 48 hrs by SRB protein assay; settings: SF-539, 48 h; for TGI: read-out: Log TGI (converted)
MOLT-4 = test: Growth inhibition of human MOLT4 cells after 48 hrs by SRB protein assay; settings: MOLT-4, 48 h; for TGI: read-out: Log TGI (converted)
SR = test: Growth inhibition of human SR cells after 48 hrs by SRB protein assay

SMILES	TGI (EKVX) [µM]	GI50 (COLO 205) [µM]	TGI (COLO 205) [µM]	GI50 (MDA-MB-435) [µM]	TGI (MDA-MB-435) [µM]	GI50 (SW-620) [µM]	TGI (SW-620) [µM]	GI50 (TK-10) [µM]	TGI (TK-10) [µM]	GI50 (NCI-H460) [µM]	TGI (NCI-H460) [µM]	GI50 (HOP-62) [µM]	TGI (HOP-62) [µM]	GI50 (SK-MEL-28) [µM]	TGI (SK-MEL-28) [µM]	GI50 (T47D) [µM]	TGI (T47D) [µM]	GI50 (CCRF-CEM) [µM]	TGI (CCRF-CEM) [µM]	GI50 (NCI-H322M) [µM]	further results
O=C(CC1Sc2ncnn2C1=O)Nc1ccccc1 (stereo not given)	64.6	25.7	79.4	41.7	> 100	3.24	44.7	19.1	39.8	35.5	> 100	> 100	> 100	> 100	> 100	39.8	> 100	33.9	100	> 100	GI50 (SNB-75): 31.6 µM; TGI (SNB-75; read-out: Log TGI (converted)): 85.1 µM; GI50 (SK-OV-3): > 100 µM; TGI (SK-OV-3): > 100 µM; GI50 (NCI-H23): 0.115 µM; TGI (NCI-H23): 9.12 µM; GI50 (IGROV-1): 25.7 µM; TGI (IGROV-1): 66.1 µM; GI50 (SNB-19): > 100 µM; TGI (SNB-19): > 100 µM; TGI (NCI-H322M): > 100 µM
COc1ccc(NC(=O)CC2Sc3ncnn3C2=O)cc1 (stereo not given)	> 100	30.2	79.4	26.3	70.8	37.2	> 100	16.6	30.9	> 100	> 100	> 100	> 100	26.9	> 57.5	37.2	> 100	20.4	41.7	97.7	GI50 (EKVX): 35.5 µM; GI50 (A498): 21.4 µM; TGI (A498): 57.5 µM; GI50 (HL-60): 27.5 µM; TGI (HL-60): > 100 µM; GI50 (SK-OV-3): > 100 µM; TGI (SK-OV-3): > 100 µM; GI50 (NCI-H23): 20 µM; TGI (NCI-H23): 37.2 µM; GI50 (DU-145): 57.5 µM; TGI (DU-145): > 100 µM; GI50 (IGROV-1): 67.6 µM; TGI (IGROV-1): > 100 µM; GI50 (SF-539): 26.9 µM; TGI (SF-539): 55 µM; GI50 (MOLT-4): 28.8 µM; TGI (MOLT-4): 70.8 µM; TGI (NCI-H322M): > 100 µM
O=C(CC1Sc2ncnn2C1=O)Nc1ccc(Cl)cc1 (stereo not given)	> 100	19.5	47.9	55	> 100	32.4	79.4	20.9	39.8	> 100	> 100	> 100	> 100	22.9	57.5	24	61.7	19.1	41.7	> 100	GI50 (EKVX): > 100 µM; GI50 (A498): > 100 µM; TGI (A498): > 100 µM; GI50 (SK-OV-3): > 100 µM; TGI (SK-OV-3): > 100 µM; GI50 (NCI-H23): 23.4 µM; TGI (NCI-H23): 70.8 µM; GI50 (DU-145): > 100 µM; TGI (DU-145): > 100 µM; GI50 (IGROV-1): > 100 µM; TGI (IGROV-1): > 100 µM; GI50 (SF-539): 31.6 µM; TGI (SF-539): 74.1 µM; GI50 (SNB-19): > 100 µM; TGI (SNB-19): > 100 µM; GI50 (MOLT-4): 20 µM; TGI (MOLT-4): 47.9 µM; TGI (NCI-H322M): > 100 µM
O=C(CC1Sc2ncnn2C1=O)Nc1ccc(Br)cc1 (stereo not given)	> 100	17.8	37.2	31.6	> 100	44.7	> 100	17.4	31.6	> 100	> 100	> 100	> 100	23.4	70.8	18.2	45.7	21.4	55	> 100	GI50 (EKVX): 31.6 µM; GI50 (A498): 12.3 µM; TGI (A498): 57.5 µM; GI50 (HL-60): 19.5 µM; TGI (HL-60): > 100 µM; GI50 (SK-OV-3): > 100 µM; TGI (SK-OV-3): > 100 µM; GI50 (NCI-H23): 20.9 µM; TGI (NCI-H23): 43.7 µM; GI50 (DU-145): 38.9 µM; TGI (DU-145): > 100 µM; GI50 (SR): 18.2 µM; TGI (SR; read-out: Log TGI (converted)): > 100 µM; GI50 (IGROV-1): 34.7 µM; TGI (IGROV-1): > 100 µM; GI50 (SF-539): 20.9 µM; TGI (SF-539): 46.8 µM; GI50 (MOLT-4): 25.1 µM; TGI (MOLT-4): 97.7 µM; TGI (NCI-H322M): > 100 µM
CCOC(=O)c1ccc(NC(=O)CC2Sc3ncnn3C2=O)cc1 (stereo not given)	69.2	21.4	40.7	> 100	> 100	38.9	> 100	22.9	55	> 100	> 100	21.4	47.9	91.2	> 100	23.4	57.5	24.5	77.6	> 100	GI50 (EKVX): 28.2 µM; GI50 (HL-60): 46.8 µM; TGI (HL-60): > 100 µM; GI50 (SNB-19): > 100 µM; TGI (SNB-19): > 100 µM; GI50 (MOLT-4): 33.9 µM; TGI (MOLT-4): 66.1 µM; TGI (NCI-H322M): > 100 µM

Reference: ChEMBL document CHEMBL1147193, “New 5-substituted thiazolo[3,2-b][1,2,4]triazol-6-ones: synthesis and anticancer evaluation” (2007)
